# Reference: ChEMBL document CHEMBL1138896, “2,3,7-Trisubstituted pyrazolo[1,5-d][1,2,4]triazines: functionally selective GABAA alpha3-subtype agonists” (Bioorg Med Chem Lett, 2006)
# Key:
# [1] = biological target: T1, GABA-A receptor; alpha-3/beta-3/gamma-2 (Homo sapiens, UniProt P18507+P28472+P34903); experiment: Inhibition of [3H]Ro15-1788 binding to human recombinant GABA-Aalpha3 plus beta-3-gamma-2 receptor expressed in L(tk-) cells; type: cell-based
# T1 sequence (P18507 whole entry): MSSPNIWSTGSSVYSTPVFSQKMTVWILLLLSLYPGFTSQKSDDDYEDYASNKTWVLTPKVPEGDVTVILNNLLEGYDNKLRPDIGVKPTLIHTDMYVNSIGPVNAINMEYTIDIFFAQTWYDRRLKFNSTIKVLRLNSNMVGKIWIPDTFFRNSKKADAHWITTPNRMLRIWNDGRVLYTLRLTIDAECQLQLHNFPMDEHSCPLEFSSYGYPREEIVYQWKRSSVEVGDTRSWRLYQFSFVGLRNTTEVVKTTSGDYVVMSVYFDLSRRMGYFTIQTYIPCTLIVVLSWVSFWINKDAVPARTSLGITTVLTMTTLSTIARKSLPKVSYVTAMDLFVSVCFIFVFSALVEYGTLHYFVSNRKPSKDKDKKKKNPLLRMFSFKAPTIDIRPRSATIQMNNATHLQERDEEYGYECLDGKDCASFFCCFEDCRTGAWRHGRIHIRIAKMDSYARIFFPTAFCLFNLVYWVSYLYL
# T1 sequence (P28472 whole entry): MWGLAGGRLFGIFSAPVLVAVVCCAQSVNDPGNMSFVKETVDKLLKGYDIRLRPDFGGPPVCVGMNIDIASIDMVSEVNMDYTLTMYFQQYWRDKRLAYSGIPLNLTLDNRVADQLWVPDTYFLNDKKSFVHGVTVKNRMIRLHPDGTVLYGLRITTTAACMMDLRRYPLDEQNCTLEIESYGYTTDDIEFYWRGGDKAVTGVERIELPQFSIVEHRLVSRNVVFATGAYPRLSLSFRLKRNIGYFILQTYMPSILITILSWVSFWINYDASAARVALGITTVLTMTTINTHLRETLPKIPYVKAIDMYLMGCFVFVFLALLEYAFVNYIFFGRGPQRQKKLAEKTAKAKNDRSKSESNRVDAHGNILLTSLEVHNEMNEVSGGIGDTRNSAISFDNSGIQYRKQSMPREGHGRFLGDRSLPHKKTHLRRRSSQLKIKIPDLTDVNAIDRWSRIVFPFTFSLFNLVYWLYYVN
# T1 sequence (P34903 whole entry): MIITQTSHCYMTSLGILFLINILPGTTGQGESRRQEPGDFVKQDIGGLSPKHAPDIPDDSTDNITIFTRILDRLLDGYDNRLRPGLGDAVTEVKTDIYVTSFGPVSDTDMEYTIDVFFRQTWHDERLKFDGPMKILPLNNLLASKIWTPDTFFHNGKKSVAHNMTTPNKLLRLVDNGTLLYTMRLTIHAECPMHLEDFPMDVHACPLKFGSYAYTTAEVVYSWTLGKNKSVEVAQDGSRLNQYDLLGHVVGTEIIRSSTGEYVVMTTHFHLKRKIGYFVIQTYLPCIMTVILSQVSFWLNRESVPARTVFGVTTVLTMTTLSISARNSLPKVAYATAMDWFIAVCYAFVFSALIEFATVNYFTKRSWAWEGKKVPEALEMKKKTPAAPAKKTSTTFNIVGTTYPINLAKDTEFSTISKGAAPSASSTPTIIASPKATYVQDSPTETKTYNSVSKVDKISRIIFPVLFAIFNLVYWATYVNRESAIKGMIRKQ
# [2] = biological target: GABA-A receptor; alpha-3/beta-3/gamma-2 (Homo sapiens) (UniProt P18507+P28472+P34903); experiment: Efficacy against human recombinant GABA-Aalpha3 plus beta-3-gamma-2 receptor expressed in L(tk-) cells assessed as modulation of chloride ion by whole cell patch clamp method relative to chlorodiazepoxide; type: functional, cell-based
# [3] = biological target: GABA-A receptor; alpha-1/beta-3/gamma-2 (Homo sapiens) (UniProt P14867+P18507+P28472); experiment: Efficacy against human recombinant GABA-Aalpha1 plus beta-3-gamma-2 receptor expressed in L(tk-) cells assessed as modulation of chloride ion by whole cell patch clamp method relative to chlorodiazepoxide; type: functional, cell-based
# [4] = biological target: T2, GABA-A receptor; alpha-1/beta-3/gamma-2 (Homo sapiens, UniProt P14867+P18507+P28472); experiment: Inhibition of [3H]Ro15-1788 binding to human recombinant GABA-Aalpha1 plus beta-3-gamma-2 receptor expressed in L(tk-) cells; type: cell-based
# T2 sequence (P14867 whole entry): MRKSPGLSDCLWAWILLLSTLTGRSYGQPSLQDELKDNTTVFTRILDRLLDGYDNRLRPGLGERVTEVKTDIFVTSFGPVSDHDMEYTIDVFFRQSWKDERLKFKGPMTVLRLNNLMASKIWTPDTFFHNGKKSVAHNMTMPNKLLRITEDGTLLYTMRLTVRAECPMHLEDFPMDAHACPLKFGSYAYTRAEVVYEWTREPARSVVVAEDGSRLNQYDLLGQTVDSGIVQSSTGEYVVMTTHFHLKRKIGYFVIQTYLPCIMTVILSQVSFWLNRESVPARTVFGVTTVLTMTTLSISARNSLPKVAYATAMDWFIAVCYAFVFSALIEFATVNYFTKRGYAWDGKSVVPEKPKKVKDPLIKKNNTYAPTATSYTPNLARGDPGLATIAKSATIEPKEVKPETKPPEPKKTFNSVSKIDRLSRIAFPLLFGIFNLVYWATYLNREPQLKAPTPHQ
# T2 sequence (P18507 whole entry): T1 sequence (P18507 whole entry)
# T2 sequence (P28472 whole entry): T1 sequence (P28472 whole entry)
# [5] = Oral bioavailability in rat; type: ADME, organism-based; conditions: in vivo
# Rattus norvegicus = experiment: Receptor occupancy in rat, po; type: functional
SMILES,Ki [1],Efficacy [2],Efficacy [3],Ki [4],bioavailability [5],Activity (Rattus norvegicus)
Cn1ncnc1COc1nn2c(-[n+]3ccncc3)nncc2c1-c1ccccc1F,2.7 nM,0.18,0.03,,,
Cn1ncnc1COc1nn2c(-c3ccccc3F)nncc2c1-c1ccccc1Cl,8.7 nM,0.32,0.32,,,
Cn1ncnc1COc1nn2c(-c3cccs3)nncc2c1-c1ccccc1,1.6 nM,0.19,-0.03,,,
Cn1ncnc1COc1nn2c(-c3ccccc3F)nncc2c1-c1ccccn1,1.4 nM,0.56,0.45,,,
Cn1ncnc1COc1nn2c(-c3cccc(F)c3)nncc2c1-c1ccccc1F,1.2 nM,0.57,0.38,,,
Cn1ncnc1COc1nn2c(-c3ccccc3F)nncc2c1-c1ccncc1,0.14 nM,0.19,0.1,,,
Cn1ncnc1COc1nn2c(-c3ccccc3F)nncc2c1-c1cccc(N)c1,14 nM,0.38,0.42,,,
Cn1ncnc1COc1nn2c(-c3ccccc3F)nncc2c1-c1cc(F)ccc1F,0.2 nM,0.46,0.29,,,
Cc1ccccc1-c1c(OCc2ncnn2C)nn2c(-c3ccccc3F)nncc12,23 nM,,,,,
Cn1ncnc1COc1nn2c(-c3ccccc3F)nncc2c1-c1cccc(Cl)c1,1.1 nM,0.45,0.35,,,
Cn1ncnc1COc1nn2c(-c3ccccc3F)nncc2c1-c1ccccc1C(F)(F)F,> 33 nM,,,,,
Cn1ncnc1COc1nn2c(-c3ccccc3F)nncc2c1-c1cccc(F)c1,0.28 nM,0.46,0.23,,,
Cn1ncnc1COc1nn2c(-c3ccc(F)cc3F)nncc2c1-c1ccccc1F,2 nM,0.78,0.42,,,
Cn1ncnc1COc1nn2c(-c3ccccc3F)nncc2c1-c1ccccc1,0.77 nM,0.44,0.18,0.39 nM,,
Cn1ncnc1COc1nn2c(-c3ccccc3F)nncc2c1-c1cccc(C#N)c1,1.6 nM,0.28,0.35,,,
Cn1ncnc1COc1nn2c(-c3cccnc3)nncc2c1-c1ccccc1F,1.1 nM,0.16,0.15,,,
Cn1ncnc1COc1nn2c(-c3ccccc3F)nncc2c1-c1ccc(F)cc1,6.3 nM,0.31,0.09,,,
Cn1ncnc1COc1nn2c(-c3c(F)cc(F)cc3F)nncc2c1-c1ccccc1F,2.6 nM,0.59,0.37,,,
Cn1ncnc1COc1nn2c(-c3ccco3)nncc2c1-c1ccccc1F,0.85 nM,0.19,0.01,,,

SMILES,Ki [1],Efficacy [2],Efficacy [3],Ki [4],bioavailability [5],Activity (Rattus norvegicus)
Cn1ncnc1COc1nn2c(-c3ccccc3F)nncc2c1-c1cccc(C(F)(F)F)c1,0.54 nM,0.46,0.3,,,
Cn1ncnc1COc1nn2c(-c3ccccc3F)nncc2c1-c1cccnc1,0.98 nM,0.52,0.35,,,
Cn1ncnc1COc1nn2c(-c3ccccc3F)nncc2c1-c1ccccc1F,0.45 nM,0.4,0.22,,,
Cn1ncnc1COc1nn2c(-c3ccccc3Cl)nncc2c1-c1ccccc1F,21 nM,0.02,-0.02,,,
Cn1ncnc1COc1nn2c(-c3ccccc3F)nncc2c1-c1ccsc1,0.1 nM,0.21,-0.02,,32%,0.54 mg/kg
Cn1ncnc1COc1nn2c(-c3ccccc3F)nncc2c1-c1cccc(F)c1F,1.5 nM,0.4,0.27,,,
Cn1ncnc1COc1nn2c(-c3cc(F)ccc3F)nncc2c1-c1ccccc1F,1.3 nM,0.52,0.52,,,
Cn1ncnc1COc1nn2c(-c3ccccc3F)nncc2c1-c1c(F)cccc1F,0.55 nM,0.45,0.23,,,
Cn1ncnc1COc1nn2c(-c3c(F)cccc3F)nncc2c1-c1ccccc1F,0.52 nM,0.55,0.29,,,
Cn1ncnc1COc1nn2c(-c3ccccc3F)nncc2c1-c1ccco1,0.11 nM,0.16,-0.09,,,
Cn1ncnc1COc1nn2c(C3CC3)nncc2c1-c1ccccc1F,0.36 nM,-0.01,-0.08,,,
Cn1ncnc1COc1nn2c(-c3ccc(F)cc3)nncc2c1-c1ccccc1F,0.94 nM,0.6,0.36,,,
Cn1ncnc1COc1nn2c(-c3c(F)ccc(F)c3F)nncc2c1-c1ccccc1F,2.7 nM,0.55,0.45,,,
Cn1ncnc1COc1nn2c(-c3ccoc3)nncc2c1-c1ccccc1F,0.61 nM,-0.12,0.07,,,
Cn1ncnc1COc1nn2c(-c3ccccc3F)nncc2c1-c1cncnc1,> 33 nM,,,,,
Cn1ncnc1COc1nn2c(-c3ccccc3F)nncc2c1-c1cccs1,0.1 nM,0.12,0.01,,,
Cn1ncnc1COc1nn2c(-c3ccccc3F)nncc2c1-c1cccc(CO)c1,6.6 nM,0.5,0.5,,,
Cn1ncnc1COc1nn2c(-c3ccccc3F)nncc2c1-c1cc(F)cc(F)c1,> 33 nM,,,,,
